Experimental data: patent US6686350B1, “Cell adhesion inhibitors” (Biogen, Inc., priority 1996, dated 2004)

Molecular target: T1, VLA-4 (Homo sapiens, UniProt P05556+P13612)
T1 construct: endogenous in cells; host or cells: Jurkat cells
Assay: VLA-4 direct binding assay (VCAM-IgG alkaline phosphatase conjugate binding to Jurkat cells)
Conditions: Table 1, Structure-Activity; assay and unit inferred; read-out: Act
Source text: A direct binding assay may also be employed to quantitate the inhibitory activity of the compounds of this invention. (“DBA”) In direct binding assays, for example, a VCAM-IgG fusion protein containing the first two immunoglobulin domains of VCAM (D1D2) attached above the hinge region of an IgG1 molecule (“VCAM 2D-IgG”), is conjugated to a marker enzyme, such as alkaline phosphatase (“AP”). The synthesis of this VCAM-IgG fusion is described in PCT publication WO 90/13300, the disclosure of which is herein incorporated by reference. The conjugation of that fusion to a marker enzyme can be achieved by cross-linking methods well-known in the art.
The VCAM-IgG enzyme conjugate is then placed in the wells of a multi-well filtration plate, such as that contained in the Millipore Multiscreen Assay System (Millipore Corp., Bedford, Mass.). Varying concentrations of the test inhibitory compound are then added to the wells followed by addition of VLA-4-expressing cells. The cells, compound and VCAM-IgG enzyme conjugate are mixed together and allowed to incubate at room temperature.
Following incubation, the wells are vacuum drained, leaving behind the cells and any bound VCAM. Quantitation of bound VCAM is determined by adding an appropriate calorimetric substrate for the enzyme conjugated to VCAM-IgG and determining the amount of reaction product. Decreased reaction product indicates increased binding inhibitory activity. The protocol is described more specifically below:
1. Block a 96 well Millipore Multiscreen Assay System filtration plate^1 with 200:l/well of blocking buffer (1×Phosphate Buffered Saline, 0.1%Tween 20, 1%BSA) for at least 1 hour at room temperature.
2. Drain the plate with the vacuum manifold, and wash with 200 μl/well of assay buffer (Tris Buffered Saline, 0.1% BSA, 2 mM glucose, 10 mM HEPES, pH 7.5) draining the plate in between. Repeat twice. Then blot the plate bottom on paper to remove excess buffer.
3. Prepare a 4 μg/ml VCAMIg-AP solution (Alkaline phosphatase coupled to VCAMIg) in assay buffer and filter with a 0.2:low protein binding syringe filter (Gelman Sciences #4454). From this stock, prepare a 0.4 μg/ml working solution of VCAMIg-AP in assay buffer. Add 25:l of 0.4 μg/ml VCAMIg-AP to every well.
5. Prepare dilutions of compounds to be tested in assay buffer. Concentrations should be 4× the desired final concentration and run in triplicate. Add 25 μl of the compound dilutions to designated wells.
7. Jurkat cells are centrifuged to remove cell culture media and washed once in assay buffer. Resuspend the washed Jurkat cells to a concentration of 8×10^6/ml in assay buffer containing 2 mM MnCl2. Pipeting the mixture up and down to ensure a uniform cell suspension. Add 50:l of cell suspension to each well except the NSB wells.
8. Gently tap the sides of the plate to mix well contents. Incubate the plate for 60 minutes at room temperature (RT).
9. Place the plate on the vacuum manifold to drain the well contents. Wash twice with 100 μl/well of wash buffer (assay buffer containing 1 mM MnCl2). Drain the plate and blot on paper towels.
10. Add 10 mg/ml of 4-Nitro phenyl phosphate to Substrate buffer (0.1M glycine, 1 mM ZnCl2, 1 mM MgCl2, pH 10.5). Add 100 μl/well and incubate for exactly 30 minutes at RT.
11. To stop the reaction, add 100 μl/well of 3N NaOH.
12. Read the 96-well plate in a Molecular Devices ELISA platereader at 405 nm. Analyze data with SoftMax software.

T1 sequence (P13612 34-1032): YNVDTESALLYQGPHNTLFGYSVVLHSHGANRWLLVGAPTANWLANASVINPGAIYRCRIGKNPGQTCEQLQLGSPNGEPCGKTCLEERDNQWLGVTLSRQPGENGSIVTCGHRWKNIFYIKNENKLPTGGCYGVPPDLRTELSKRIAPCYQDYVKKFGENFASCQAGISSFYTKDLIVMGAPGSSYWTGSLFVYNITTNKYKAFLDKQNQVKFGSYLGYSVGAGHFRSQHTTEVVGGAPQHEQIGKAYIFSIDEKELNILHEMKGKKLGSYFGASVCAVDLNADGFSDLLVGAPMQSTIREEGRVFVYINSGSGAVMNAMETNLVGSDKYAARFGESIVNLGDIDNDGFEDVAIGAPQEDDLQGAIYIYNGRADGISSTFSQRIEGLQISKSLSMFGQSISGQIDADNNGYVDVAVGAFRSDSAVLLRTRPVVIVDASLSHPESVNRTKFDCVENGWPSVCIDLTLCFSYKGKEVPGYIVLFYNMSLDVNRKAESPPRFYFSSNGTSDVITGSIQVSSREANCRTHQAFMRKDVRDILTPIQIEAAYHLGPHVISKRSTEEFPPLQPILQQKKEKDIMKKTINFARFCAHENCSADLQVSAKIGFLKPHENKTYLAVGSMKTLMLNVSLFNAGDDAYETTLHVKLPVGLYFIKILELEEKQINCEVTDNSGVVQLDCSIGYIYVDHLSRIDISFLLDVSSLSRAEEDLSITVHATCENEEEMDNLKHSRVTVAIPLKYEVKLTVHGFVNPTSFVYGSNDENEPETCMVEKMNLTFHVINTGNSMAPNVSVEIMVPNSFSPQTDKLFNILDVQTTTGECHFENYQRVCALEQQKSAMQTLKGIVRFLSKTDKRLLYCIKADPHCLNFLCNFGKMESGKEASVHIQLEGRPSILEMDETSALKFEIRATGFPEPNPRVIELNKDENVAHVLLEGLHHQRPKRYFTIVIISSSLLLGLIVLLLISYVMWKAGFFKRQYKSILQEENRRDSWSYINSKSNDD
T1 sequence (P05556 21-798): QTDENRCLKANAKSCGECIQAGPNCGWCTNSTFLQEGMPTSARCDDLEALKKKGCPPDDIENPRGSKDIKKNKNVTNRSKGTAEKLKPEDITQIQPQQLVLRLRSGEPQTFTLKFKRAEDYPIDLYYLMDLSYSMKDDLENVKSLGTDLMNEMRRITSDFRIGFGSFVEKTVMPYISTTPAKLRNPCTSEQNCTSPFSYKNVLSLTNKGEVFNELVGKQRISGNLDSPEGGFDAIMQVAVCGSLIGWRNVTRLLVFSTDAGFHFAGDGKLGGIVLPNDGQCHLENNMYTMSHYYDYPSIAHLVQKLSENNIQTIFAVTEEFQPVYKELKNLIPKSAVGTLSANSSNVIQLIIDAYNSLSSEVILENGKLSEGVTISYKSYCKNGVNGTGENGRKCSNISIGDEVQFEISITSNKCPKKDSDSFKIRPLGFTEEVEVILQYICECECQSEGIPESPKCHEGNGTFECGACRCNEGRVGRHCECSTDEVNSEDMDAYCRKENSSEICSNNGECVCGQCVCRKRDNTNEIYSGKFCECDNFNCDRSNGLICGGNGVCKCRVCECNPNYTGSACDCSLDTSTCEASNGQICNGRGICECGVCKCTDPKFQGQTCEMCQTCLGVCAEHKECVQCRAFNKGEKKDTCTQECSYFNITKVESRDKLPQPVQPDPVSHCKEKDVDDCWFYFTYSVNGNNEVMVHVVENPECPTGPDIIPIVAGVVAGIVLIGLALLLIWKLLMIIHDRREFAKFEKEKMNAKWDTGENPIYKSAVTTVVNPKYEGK

SMILES	IC50
CC(=O)N(CCCC(=O)O)Cc1cccc(NC(=O)Cc2ccc(NC(=O)Nc3ccccc3C)cc2)c1 [RX20]	250 nM
Cc1ccccc1NC(=O)Nc1ccc(CC(=O)Nc2cccc(CN(CCC(=O)O)C(=O)Cc3ccccc3)c2)cc1 [RX8]	2250 nM
COc1cccc(C(=O)N(CCC(=O)O)CC(=O)N(CCC(C)C)CC(=O)Nc2ccc(OCC(=O)Nc3ccccc3)cc2)c1 [AX19]	6190 nM
CSCCCN(CC(=O)Nc1ccc(NC(=O)Nc2ccccc2)cc1)C(=O)CN(CCC(=O)O)C(=O)c1ccccc1 [AX27]	200 nM
CC1=NN(c2ccc(C(=O)Nc3ccc4c(c3)C(=O)N(CCC(=O)O)CC(=O)N4C)cc2)C(=O)C1 [BX13]	5860 nM
CN1Cc2ccc(NC(=O)Cc3ccc(NC(=O)Nc4ccccc4Br)cc3)cc2CN(CC(=O)O)C1=O [BX65]	65 nM
Cc1ccccc1NC(=O)Nc1ccc(NC(=O)[C@@H]2CCCN2C(=O)NCCCC(=O)O)cc1 [CX2]	8940 nM
Cc1ccccc1NC(=O)Nc1ccc(CC(=O)Nc2ccc3c(c2)C(=O)N(CCC(=O)O)CC(=O)N3C2CCN(Cc3ccccc3)CC2)cc1 [BX43]	273 nM
COc1ccc([C@H](CC(=O)O)NC(=O)C(O)CC(=O)Nc2ccc(NC(=O)Nc3ccccc3C)cc2)cc1OC (some centres unmarked) [SX38]	404 nM
COc1cccc(C(=O)N(CCC(=O)O)CC(=O)N(CCC(C)C)CC(=O)Nc2ccc3c(c2)C(=O)CCCC3)c1 [AX3]	15300 nM
Cc1ccccc1NC(=O)Nc1ccc(CC(=O)N(C)c2ccc3c(c2)C(=O)N(CCC(=O)O)CC(=O)N3C)cc1 [BX23]	3240 nM
COC(=O)CCCOc1cc(NC(=O)Cc2ccc(NC(=O)Nc3ccccc3C)cc2)cc(OCCCC(=O)O)c1 [RX22]	157 nM
COc1ccc([C@H](CC(=O)O)NC(=O)C(CC(=O)Nc2ccc(NC(=O)c3ccccc3)cc2)CC(C)C)cc1OC (some centres unmarked) [SX3]	165 nM
Cc1ccccc1NC(=O)Nc1ccc(CC(=O)Nc2ccc(C)c(OCCCC(=O)O)c2)cc1 [RX24]	855 nM
Cc1ccccc1NC(=O)Nc1ccc(CC(=O)NCc2ccc3c(c2)C(=O)N(CCC(=O)O)CC(=O)N3C)cc1 [BX16]	5120 nM
COc1ccc(C(CC(=O)O)NC(=O)[C@@H](CC(=O)Nc2ccc(COc3ccccc3C)cc2)CC(C)C)cc1OC (some centres unmarked) [SX31]	680 nM
Cc1ccccc1NC(=O)Nc1ccc(CC(=O)Nc2ccc3c(c2)C(=O)N(CCCCC(=O)O)CC(=O)N3C)cc1 [BX15]	5130 nM
Cc1ccccc1NC(=O)Nc1ccc(CC(=O)Nc2ccc3c(c2)C(=O)N(CCC(=O)O)CC(=O)N3CCC(=O)O)cc1 [BX39]	480 nM
Cc1ccccc1NC(=O)Nc1ccc(CC(=O)Nc2ccc3c(c2)CN(CCC(=O)O)C(=O)CN3CCC(=O)O)cc1 [BX71]	28.5 nM
COCC(C)N1C(=O)CN(CCC(=O)O)C(=O)c2cc(NC(=O)Cc3ccc(NC(=O)Nc4ccccc4C)cc3)ccc21 (centres unmarked) [BX54]	128 nM
COc1ccc(NC(=O)Cc2ccc(NC(=O)Nc3ncccc3C)cc2)cc1OCCCC(=O)O [RX7]	2300 nM
COc1ccc(CCN2CC(=O)N(CCC(=O)O)Cc3cc(NC(=O)Cc4ccc(NC(=O)Nc5ccccc5C)cc4)ccc32)cc1OC [BX68]	35 nM
Cc1ccccc1NC(=O)Nc1ccc(NC(=O)CN(CCC(C)C)C(=O)CN(CCC(=O)O)C(=O)CN2CCCCC2)cc1 [AX22]	636 nM
COc1cccc(C(=O)N(CCC(=O)O)CC(=O)N(CCC(C)C)CC(=O)Nc2ccc(NC(=O)c3c[nH]c4ccccc34)cc2)c1 [AX26]	240 nM

Molecular target: IIb/IIIa (Homo sapiens, UniProt P05106+P08514)
Sequence (P08514 32-887 limits assumed): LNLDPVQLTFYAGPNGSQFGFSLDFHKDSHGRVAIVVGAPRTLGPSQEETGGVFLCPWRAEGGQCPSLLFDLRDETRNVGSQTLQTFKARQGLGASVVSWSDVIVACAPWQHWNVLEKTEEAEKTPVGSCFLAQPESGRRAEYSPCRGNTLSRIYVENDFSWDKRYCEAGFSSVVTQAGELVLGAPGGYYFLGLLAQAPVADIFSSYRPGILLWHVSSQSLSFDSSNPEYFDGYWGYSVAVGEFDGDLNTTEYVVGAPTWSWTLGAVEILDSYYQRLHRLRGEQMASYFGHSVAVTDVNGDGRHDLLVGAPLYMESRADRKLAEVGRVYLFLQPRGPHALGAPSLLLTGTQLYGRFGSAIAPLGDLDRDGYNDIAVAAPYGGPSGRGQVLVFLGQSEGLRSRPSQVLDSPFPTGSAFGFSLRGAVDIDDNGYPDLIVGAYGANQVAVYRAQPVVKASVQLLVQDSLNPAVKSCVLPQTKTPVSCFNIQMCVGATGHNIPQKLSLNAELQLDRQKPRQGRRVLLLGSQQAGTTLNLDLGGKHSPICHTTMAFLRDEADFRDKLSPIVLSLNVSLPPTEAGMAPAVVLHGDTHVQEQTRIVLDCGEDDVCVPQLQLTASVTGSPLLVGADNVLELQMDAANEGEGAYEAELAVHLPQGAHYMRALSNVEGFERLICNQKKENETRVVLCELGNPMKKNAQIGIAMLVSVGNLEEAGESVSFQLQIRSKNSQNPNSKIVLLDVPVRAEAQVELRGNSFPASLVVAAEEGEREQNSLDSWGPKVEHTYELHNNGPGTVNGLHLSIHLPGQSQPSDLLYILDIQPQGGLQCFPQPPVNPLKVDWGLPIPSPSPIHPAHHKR
Sequence (P08514 891-1039 limits assumed): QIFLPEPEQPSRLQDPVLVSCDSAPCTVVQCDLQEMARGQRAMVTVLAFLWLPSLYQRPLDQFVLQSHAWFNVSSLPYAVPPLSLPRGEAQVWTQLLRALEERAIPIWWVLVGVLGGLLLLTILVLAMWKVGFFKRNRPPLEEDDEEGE
Sequence (P05106 27-788): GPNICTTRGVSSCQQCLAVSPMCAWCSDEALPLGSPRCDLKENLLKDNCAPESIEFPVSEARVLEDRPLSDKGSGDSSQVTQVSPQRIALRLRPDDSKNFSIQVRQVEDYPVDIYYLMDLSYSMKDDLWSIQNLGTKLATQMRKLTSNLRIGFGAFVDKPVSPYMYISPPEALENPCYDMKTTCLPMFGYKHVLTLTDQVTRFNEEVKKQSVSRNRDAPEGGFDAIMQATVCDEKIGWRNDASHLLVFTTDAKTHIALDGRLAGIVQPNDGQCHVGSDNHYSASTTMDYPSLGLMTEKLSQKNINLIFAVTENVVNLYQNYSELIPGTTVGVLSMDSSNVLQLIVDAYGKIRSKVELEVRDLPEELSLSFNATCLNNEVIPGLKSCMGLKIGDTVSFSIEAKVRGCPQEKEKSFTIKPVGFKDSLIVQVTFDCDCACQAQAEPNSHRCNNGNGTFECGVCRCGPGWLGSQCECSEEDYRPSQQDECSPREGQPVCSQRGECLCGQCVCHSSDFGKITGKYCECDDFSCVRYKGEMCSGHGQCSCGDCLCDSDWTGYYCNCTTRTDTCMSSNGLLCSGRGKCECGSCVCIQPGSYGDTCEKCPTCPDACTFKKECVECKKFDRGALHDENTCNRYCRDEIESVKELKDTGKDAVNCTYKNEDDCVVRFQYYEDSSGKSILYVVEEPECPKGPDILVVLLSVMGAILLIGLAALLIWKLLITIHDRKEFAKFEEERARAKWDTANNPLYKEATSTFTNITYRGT
Assay: IIb/IIIa inhibitory activity (receptor-ligand binding or platelet aggregation)
Conditions: qualitative statement
Source text: In a basic embodiment, therefore, one skilled in the art first identifies a compound having IIb/IIIa inhibitory activity. Compounds having IIb/IIIa inhibitory activity are well known to those skilled in the art, and are readily available, see, e.g., Table 2 and the references incorporated herein in the Background of the Invention. For purposes of this invention, one skilled in the art may use any of these known compounds. Alternatively, one may determine in assays known to those skilled in the art whether a particular compound has IIB/IIIa activity. If the assay is positive, then the scaffold will be useful in the present invention. Assays for IIb/IIIa inhibitory activity are well known in the art. […] (WO 093/00095, specifically incorporated herein by reference.) Additionally, the aforementioned binding to ligands can be assessed by one skilled in the art in a platelet aggregation assay.

SMILES	IIb/IIIa inhibitory activity
CN(CC(=O)N1CCC(C2CCNCC2)CC1)C(=O)CN(CCC(=O)O)C(=O)c1ccccc1 [Compound B]	potent IIB/IIIa inhibitor

Tested on: not given
Assay: not given
Conditions: not given

SMILES	melting point
COCCC(=O)N(CCC(=O)O)CC(=O)N(CCC(C)C)CC(=O)Nc1ccc(NC(=O)Nc2ccccc2C)cc1 [AY44]	164 to 166 °C
